Reference: PMC5218480 (PLoS ONE, 2017)

Tested on: MV-4-11 cells
Assay: Gene expression microarray analysis (Affymetrix PrimeView) and GSEA
Assay type: cell-based, human
Set-up: RFU PODN (11730768_x_at) / Fold change /veh PODN (11730768_x_at) / RFU LINC00158 (11744669_a_at) / Fold change /veh LINC00158 (11744669_a_at) / RFU DUSP10 (11751237_a_at) / Fold change /veh DUSP10 (11751237_a_at) / RFU ID3 (11757404_x_at) / Fold change /veh ID3 (11757404_x_at) / RFU PLEKHG5 (11737974_s_at) / Fold change /veh PLEKHG5 (11737974_s_at) / RFU LRRC4B (11730491_at) / Fold change /veh LRRC4B (11730491_at) / RFU GIMAP4 (11747438_a_at) / Fold change /veh GIMAP4 (11747438_a_at) / RFU KRT8 (11758183_x_at) / Fold change /veh KRT8 (11758183_x_at) / RFU CNN1 (11734310_a_at) / Fold change /veh CNN1 (11734310_a_at) / RFU VPS37D (11726825_at) / Fold change /veh VPS37D (11726825_at) / RFU C10orf10 (11716522_x_at) / Fold change /veh C10orf10 (11716522_x_at) / RFU KIR2DL2 /// KIR2DL4 /// KIR2DL5A /// KIR2DL5B /// KIR2DS1 /// KIR2DS2 /// KIR2DS3 /// KIR2DS4 /// KIR3DL3 /// KIR3DL3 /// KIR3DS1 (11738374_at) / Fold change /veh KIR2DL2 /// KIR2DL4 /// KIR2DL5A /// KIR2DL5B /// KIR2DS1 /// KIR2DS2 /// KIR2DS3 /// KIR2DS4 /// KIR3DL3 /// KIR3DL3 /// KIR3DS1 (11738374_at) / RFU C1QL1 (11718748_at) / Fold change /veh C1QL1 (11718748_at) / RFU TMPRSS4 (11747572_a_at) / Fold change /veh TMPRSS4 (11747572_a_at) / RFU HAMP (11756126_x_at) / Fold change /veh HAMP (11756126_x_at) / RFU RNFT2 (11725882_a_at) / Fold change /veh RNFT2 (11725882_a_at) / RFU NR4A2 (11747474_a_at) / Fold change /veh NR4A2 (11747474_a_at) / RFU ABCC12 (11746883_a_at) / Fold change /veh ABCC12 (11746883_a_at) / RFU TMEM136 (11760407_x_at) / Fold change /veh TMEM136 (11760407_x_at) / RFU CLDN22 /// WWC2 (11732394_at) / Fold change /veh CLDN22 /// WWC2 (11732394_at) / RFU HLA-DPB1 (11760878_x_at) / Fold change /veh HLA-DPB1 (11760878_x_at) / RFU SPINT1 (11716480_a_at) / Fold change /veh SPINT1 (11716480_a_at) / RFU GAP43 (11754022_s_at) / Fold change /veh GAP43 (11754022_s_at) / RFU A4GNT (11735810_at) / Fold change /veh A4GNT (11735810_at) / RFU PRB3 (11715151_x_at) / Fold change /veh PRB3 (11715151_x_at) / RFU TUBB4B (11761932_at) / Fold change /veh TUBB4B (11761932_at) / RFU CAPN14 (11732068_a_at) / Fold change /veh CAPN14 (11732068_a_at) / RFU TMCC2 (11721928_a_at) / Fold change /veh TMCC2 (11721928_a_at) / RFU IRGQ (11745062_a_at) / Fold change /veh IRGQ (11745062_a_at) / RFU FAM174B (11720279_a_at) / Fold change /veh FAM174B (11720279_a_at) / RFU TMPRSS4 (11748680_a_at) / Fold change /veh TMPRSS4 (11748680_a_at) / RFU FAM212B (11763350_a_at) / Fold change /veh FAM212B (11763350_a_at) / RFU PLEKHG5 (11743358_a_at) / Fold change /veh PLEKHG5 (11743358_a_at) / RFU ZSCAN30 (11745921_a_at) / Fold change /veh ZSCAN30 (11745921_a_at) / RFU CMKLR1 (11741424_a_at) / Fold change /veh CMKLR1 (11741424_a_at) / RFU LOC101060620 /// MAPK8IP1 (11723275_at) / Fold change /veh LOC101060620 /// MAPK8IP1 (11723275_at) / RFU SPTSSB (11747773_x_at) / Fold change /veh SPTSSB (11747773_x_at) / RFU PRSS12 (11739890_at) / Fold change /veh PRSS12 (11739890_at) / RFU BIN1 (11741810_x_at) / Fold change /veh BIN1 (11741810_x_at) / RFU WNT11 (11732464_a_at) / Fold change /veh WNT11 (11732464_a_at) / RFU C10orf10 (11716521_a_at) / Fold change /veh C10orf10 (11716521_a_at) / RFU C5orf56 (11738089_at) / Fold change /veh C5orf56 (11738089_at) / RFU CYB561 (11721691_x_at) / Fold change /veh CYB561 (11721691_x_at) / RFU ANKRD19P (11752326_a_at) / Fold change /veh ANKRD19P (11752326_a_at) / RFU OR2T12 /// OR2T33 /// OR2T8 (11738714_s_at) / Fold change /veh OR2T12 /// OR2T33 /// OR2T8 (11738714_s_at) / RFU VCAN (11748164_a_at) / Fold change /veh VCAN (11748164_a_at) / RFU JSRP1 (11732532_at) / Fold change /veh JSRP1 (11732532_at) / RFU KRTAP10-11 (11738290_x_at) / Fold change /veh KRTAP10-11 (11738290_x_at) / RFU MYO3A (11730013_a_at) / Fold change /veh MYO3A (11730013_a_at) / RFU EBF3 (11725865_a_at) / Fold change /veh EBF3 (11725865_a_at) / RFU CAMK2N1 (11719241_x_at) / Fold change /veh CAMK2N1 (11719241_x_at) / RFU C5orf56 (11738088_a_at) / Fold change /veh C5orf56 (11738088_a_at) / RFU OLFML3 (11715873_a_at) / Fold change /veh OLFML3 (11715873_a_at) / RFU LOC100653217 /// NTM (11731650_a_at) / Fold change /veh LOC100653217 /// NTM (11731650_a_at) / RFU MAPK11 (11762145_a_at) / Fold change /veh MAPK11 (11762145_a_at) / RFU FIZ1 (11724087_x_at) / Fold change /veh FIZ1 (11724087_x_at) / RFU OASL (11726364_x_at) / Fold change /veh OASL (11726364_x_at) / RFU SOX15 (11748057_x_at) / Fold change /veh SOX15 (11748057_x_at) / RFU CD79A (11719716_a_at) / Fold change /veh CD79A (11719716_a_at) / RFU HIST1H1D (11736915_at) / Fold change /veh HIST1H1D (11736915_at) / RFU CASKIN2 (11723855_a_at) / Fold change /veh CASKIN2 (11723855_a_at) / RFU LOC730098 (11760151_x_at) / Fold change /veh LOC730098 (11760151_x_at) / RFU OR4N2 (11742367_at) / Fold change /veh OR4N2 (11742367_at) / RFU PRRT2 (11749266_a_at) / Fold change /veh PRRT2 (11749266_a_at) / RFU SNX32 (11753110_a_at) / Fold change /veh SNX32 (11753110_a_at) / RFU CDHR5 (11726645_a_at) / Fold change /veh CDHR5 (11726645_a_at) / RFU RCAN1 (11760418_a_at) / Fold change /veh RCAN1 (11760418_a_at) / RFU FAM167A (11723789_a_at) / Fold change /veh FAM167A (11723789_a_at) / RFU FAM26E (11764081_at) / Fold change /veh FAM26E (11764081_at) / RFU ISYNA1 (11749810_s_at) / Fold change /veh ISYNA1 (11749810_s_at) / RFU ACY1 (11761880_at) / Fold change /veh ACY1 (11761880_at) / RFU 11764098_at / Fold change /veh 11764098_at / RFU SAMD14 (11745864_x_at) / Fold change /veh SAMD14 (11745864_x_at) / RFU NPB (11741838_a_at) / Fold change /veh NPB (11741838_a_at) / RFU TMPRSS6 (11731388_a_at) / Fold change /veh TMPRSS6 (11731388_a_at) / RFU KRTAP10-2 (11738614_at) / Fold change /veh KRTAP10-2 (11738614_at) / RFU ARHGAP8 /// PRR5-ARHGAP8 (11727945_x_at) / Fold change /veh ARHGAP8 /// PRR5-ARHGAP8 (11727945_x_at) / RFU KRTAP5-7 /// NADSYN1 (11734609_at) / Fold change /veh KRTAP5-7 /// NADSYN1 (11734609_at) / RFU RASL12 (11751679_a_at) / Fold change /veh RASL12 (11751679_a_at) / RFU CDKN2B (11736163_a_at) / Fold change /veh CDKN2B (11736163_a_at) / RFU PRF1 (11729649_at) / Fold change /veh PRF1 (11729649_at) / RFU, ZNF638 /// ZNF638-IT1 / Fold change vs veh, ZNF638 /// ZNF638-IT1 / RFU, PANK3 / Fold change vs veh, PANK3 / RFU, SH3YL1 / Fold change vs veh, SH3YL1 / RFU, ZEB2 / Fold change vs veh, ZEB2 / RFU, NRIP1 / Fold change vs veh, NRIP1 / RFU, PTTG1IP / Fold change vs veh, PTTG1IP / RFU, CAPN2 / Fold change vs veh, CAPN2 / RFU, MED14 / Fold change vs veh, MED14 / RFU, SNORA58 / Fold change vs veh, SNORA58 / RFU, C1orf63 / Fold change vs veh, C1orf63 / RFU, LRRFIP1 / Fold change vs veh, LRRFIP1 / RFU, NDUFAF7 / Fold change vs veh, NDUFAF7 / RFU, SLC12A2 / Fold change vs veh, SLC12A2 / RFU, IBTK / Fold change vs veh, IBTK / RFU, ESF1 / Fold change vs veh, ESF1 / Fold change vs veh, TMEM50B / RFU, TAOK1 / Fold change vs veh, TAOK1 / RFU, ACBD3 / Fold change vs veh, ACBD3 / RFU, TMA16 / Fold change vs veh, TMA16 / RFU, RWDD3 / Fold change vs veh, RWDD3 / RFU, BCAT1 / Fold change vs veh, BCAT1 / RFU, EDEM3 / Fold change vs veh, EDEM3 / RFU, TMEM33 / Fold change vs veh, TMEM33 / RFU, WDR75 / Fold change vs veh, WDR75 / RFU, AHCTF1 / Fold change vs veh, AHCTF1 / RFU, TFRC / Fold change vs veh, TFRC / RFU, ZDHHC17 / Fold change vs veh, ZDHHC17 / RFU, NOM1 / Fold change vs veh, NOM1 / RFU, ARL8B / Fold change vs veh, ARL8B / RFU, ZBTB11 / Fold change vs veh, ZBTB11 / RFU, TAMM41 / Fold change vs veh, TAMM41 / RFU, KIAA1704 /// LOC100996395 / Fold change vs veh, KIAA1704 /// LOC100996395 / RFU, ING1 / Fold change vs veh, ING1 / RFU, TRMT61B / Fold change vs veh, TRMT61B / RFU, FUBP3 / Fold change vs veh, FUBP3 / RFU, TP53 / Fold change vs veh, TP53 / RFU, TNKS2 / Fold change vs veh, TNKS2 / RFU, ZFP14 / Fold change vs veh, ZFP14 / RFU, ACTR2 / Fold change vs veh, ACTR2 / RFU, PPP3R1 / Fold change vs veh, PPP3R1 / RFU, PIK3R1 / Fold change vs veh, PIK3R1 / RFU, HNRNPA1 / Fold change vs veh, HNRNPA1 / RFU, RNF170 / Fold change vs veh, RNF170 / RFU, ZNF28 / Fold change vs veh, ZNF28 / RFU, RNGTT / Fold change vs veh, RNGTT / RFU, OGT / Fold change vs veh, OGT / RFU, BRD1 / Fold change vs veh, BRD1 / RFU, MARS / Fold change vs veh, MARS / RFU, ZNF655 / Fold change vs veh, ZNF655 / RFU, FAHD1 / Fold change vs veh, FAHD1 / RFU, BDP1 / Fold change vs veh, BDP1 / RFU, LRRCC1 / Fold change vs veh, LRRCC1 / RFU, ARID1A / Fold change vs veh, ARID1A / RFU, ZNF146 / Fold change vs veh, ZNF146 / RFU, ZNF330 / Fold change vs veh, ZNF330 / RFU, GPN3 / Fold change vs veh, GPN3 / RFU, C9orf123 / Fold change vs veh, C9orf123 / RFU, N4BP2L2 / Fold change vs veh, N4BP2L2 / RFU, ARFIP1 / Fold change vs veh, ARFIP1 / RFU, FAM179B / Fold change vs veh, FAM179B / RFU, BCL10 / Fold change vs veh, BCL10 / RFU, UHRF1BP1L / Fold change vs veh, UHRF1BP1L / RFU, BET1 / Fold change vs veh, BET1 / RFU, CNOT2 / Fold change vs veh, CNOT2 / RFU, ZNF268 / Fold change vs veh, ZNF268 / Fold change vs veh, ZNF507 / RFU, DGCR2 / Fold change vs veh, DGCR2 / RFU, WDSUB1 / Fold change vs veh, WDSUB1 / Fold change vs veh, HSP90B1 /// MIR3652 / RFU, ADSS / Fold change vs veh, ADSS / RFU, GK / Fold change vs veh, GK / RFU, ZNF148 / Fold change vs veh, ZNF148 / RFU, TAF9 / Fold change vs veh, TAF9 / RFU, SLC1A5 / Fold change vs veh, SLC1A5 / RFU, SLMO2 / Fold change vs veh, SLMO2 / RFU, ABCC4 / Fold change vs veh, ABCC4 / RFU, LOC101060439 /// RAP1B / Fold change vs veh, LOC101060439 /// RAP1B / RFU, RFX7 / Fold change vs veh, RFX7 / RFU, GTPBP10 / Fold change vs veh, GTPBP10 / RFU, CNEP1R1 / Fold change vs veh, CNEP1R1 / RFU, BIVM-ERCC5 /// ERCC5 / Fold change vs veh, BIVM-ERCC5 /// ERCC5 / RFU, ILF3 / Fold change vs veh, ILF3 / RFU 11762660_at / Fold change /veh 11762660_at / RFU VCAN (11757783_s_at) / Fold change /veh VCAN (11757783_s_at) / RFU DDX43 (11728927_at) / Fold change /veh DDX43 (11728927_at) / RFU KRT8 (11758188_x_at) / Fold change /veh KRT8 (11758188_x_at) / RFU NKD1 (11759106_at) / Fold change /veh NKD1 (11759106_at) / RFU SRD5A1 (11742802_a_at) / Fold change /veh SRD5A1 (11742802_a_at) / RFU TPSAB1 /// TPSB2 (11721975_s_at) / Fold change /veh TPSAB1 /// TPSB2 (11721975_s_at) / RFU GSTM3 (11746129_a_at) / Fold change /veh GSTM3 (11746129_a_at) / RFU IL23R (11737362_x_at) / Fold change /veh IL23R (11737362_x_at) / RFU TMEM51 (11727254_a_at) / Fold change /veh TMEM51 (11727254_a_at) / RFU PIWIL2 (11732686_x_at) / Fold change /veh PIWIL2 (11732686_x_at) / RFU ORM1 (11744905_x_at) / Fold change /veh ORM1 (11744905_x_at) / RFU CCDC152 (11743942_at) / Fold change /veh CCDC152 (11743942_at) / RFU ECM1 (11717891_a_at) / Fold change /veh ECM1 (11717891_a_at) / RFU IL23R (11748794_a_at) / Fold change /veh IL23R (11748794_a_at) / RFU TNFAIP8L3 (11732012_x_at) / Fold change /veh TNFAIP8L3 (11732012_x_at) / RFU MBOAT4 (11741988_at) / Fold change /veh MBOAT4 (11741988_at) / RFU 11764193_at / Fold change /veh 11764193_at / RFU TMEM53 (11763286_at) / Fold change /veh TMEM53 (11763286_at) / RFU MAGEB2 (11727129_at) / Fold change /veh MAGEB2 (11727129_at) / RFU TMEM200A (11744735_a_at) / Fold change /veh TMEM200A (11744735_a_at) / RFU CCDC152 (11751479_a_at) / Fold change /veh CCDC152 (11751479_a_at) / RFU FAM211A (11726209_a_at) / Fold change /veh FAM211A (11726209_a_at) / RFU RGS16 (11746705_a_at) / Fold change /veh RGS16 (11746705_a_at) / RFU VCAN (11755009_s_at) / Fold change /veh VCAN (11755009_s_at) / RFU RHOB (11743442_s_at) / Fold change /veh RHOB (11743442_s_at) / RFU RGS16 (11720943_a_at) / Fold change /veh RGS16 (11720943_a_at) / RFU RGS16 (11720944_at) / Fold change /veh RGS16 (11720944_at) / RFU, VPS4B / Fold change vs veh, VPS4B / RFU, CREB1 / Fold change vs veh, CREB1 / RFU, DNAJC13 / Fold change vs veh, DNAJC13 / RFU, GNAQ / Fold change vs veh, GNAQ / RFU, CDK5R1 / Fold change vs veh, CDK5R1 / RFU, ZRANB3 / Fold change vs veh, ZRANB3 / RFU, CUL4A / Fold change vs veh, CUL4A / RFU, CCNY / Fold change vs veh, CCNY / RFU, UFL1 / Fold change vs veh, UFL1 / RFU, COG3 / Fold change vs veh, COG3 / RFU, DIAPH2 / Fold change vs veh, DIAPH2 / RFU, SKA2 / Fold change vs veh, SKA2 / RFU, AFF3 / Fold change vs veh, AFF3 / RFU, LMF1 / Fold change vs veh, LMF1 / RFU, IPO11 / Fold change vs veh, IPO11 / RFU, DFFB / Fold change vs veh, DFFB / RFU, FOXP1 / Fold change vs veh, FOXP1 / RFU, CARD8 / Fold change vs veh, CARD8 / RFU, STRN3 / Fold change vs veh, STRN3 / RFU, ADK / Fold change vs veh, ADK / RFU, RASSF2 / Fold change vs veh, RASSF2 / RFU, WIPF1 / Fold change vs veh, WIPF1 / RFU, LARP1B / Fold change vs veh, LARP1B / RFU, RASA1 / Fold change vs veh, RASA1 / RFU, RB1 / Fold change vs veh, RB1 / RFU, PPFIA1 / Fold change vs veh, PPFIA1 / RFU, MAT2A / Fold change vs veh, MAT2A / RFU, CCT5 / Fold change vs veh, CCT5 / RFU, WDR92 / Fold change vs veh, WDR92 / RFU, CUX1 / Fold change vs veh, CUX1 / RFU, TTC7A / Fold change vs veh, TTC7A / RFU, TMEM135 / Fold change vs veh, TMEM135 / RFU, DEPTOR / Fold change vs veh, DEPTOR / RFU, CPM / Fold change vs veh, CPM / RFU, DNAJB6 / Fold change vs veh, DNAJB6 / RFU, CACNA2D3 / Fold change vs veh, CACNA2D3 / RFU, DTX4 / Fold change vs veh, DTX4 / RFU, TFCP2 / Fold change vs veh, TFCP2 / RFU, GMCL1 /// GMCL1P1 / Fold change vs veh, GMCL1 /// GMCL1P1 / RFU, AEBP2 / Fold change vs veh, AEBP2 / RFU, SNHG1 /// SNORD22 /// SNORD25 /// SNORD26 /// SNORD27 /// SNORD28 /// SNORD29 /// SNORD31 / Fold change vs veh, SNHG1 /// SNORD22 /// SNORD25 /// SNORD26 /// SNORD27 /// SNORD28 /// SNORD29 /// SNORD31 / Fold change (Aza/veh), C12orf56 (ProbeSet 11735607_a_at) / Fold change (ACY-1035/veh), C12orf56 (ProbeSet 11735607_a_at) / Fold change (Aza/veh), FGFR1OP (ProbeSet 11751329_s_at) / Fold change (ACY-1035/veh), FGFR1OP (ProbeSet 11751329_s_at) / Fold change (Aza/veh), VPS36 (ProbeSet 11739960_a_at) / Fold change (ACY-1035/veh), VPS36 (ProbeSet 11739960_a_at) / RFU SYPL1 (11715823_x_at) / Fold change /veh SYPL1 (11715823_x_at) / RFU IGFBP7 (11715501_s_at) / Fold change /veh IGFBP7 (11715501_s_at) / RFU REEP3 (11722064_at) / Fold change /veh REEP3 (11722064_at) / RFU IGLL1 (11728026_x_at) / Fold change /veh IGLL1 (11728026_x_at): dose or concentration left out as unconfirmed
Settings: ProbeSet 11755070_a_at; LIST D

## Nc1ncn([C@@H]2O[C@H](CO)[C@@H](O)[C@H]2O)c(=O)n1 [azacitidine]
  Fold change vs veh, CARD8: 0.80
